details: not given

melting point [°C] | Compound
150 to 152 | O=C1COCCN1c1ccc([N+](=O)[O-])cc1 [Example 1, 4-(4-Nitrophenyl)-3-oxomorpholine]

details: pKa value of the amine; cited from earlier work

Compound | pKa
Cc1cc([N+](=O)[O-])ccc1N [2-Methyl-4-nitroaniline] | 1.04
Nc1ccccc1[N+](=O)[O-] [2-Nitroaniline] | −0.23
Nc1cccc([N+](=O)[O-])c1 [3-Nitroaniline] | 2.5
Nc1ccc(C(=O)c2ccccc2)cc1 [4-Aminobenzophenone] | 2.2
N#Cc1ccc(N)cc1 [4-Cyanoaniline] | 1.7
COc1ccc(N)cc1 [4-Methoxyaniline] | 5.4
NCc1ccccc1 [Benzylamine] | 9.5
COC(=O)c1ccc(N)cc1 [Methyl 4-aminobenzoate] | 1.5

Reference: US7687624B2, “Process for the production of N-arylmorpholinones” (Merck Patent GmbH, priority 2003, dated 2010)
